Read-outs that look alike come from different tables or passages of the source.
Tests used:
[1] = Atovaquone release by Rapid Equilibrium Dialysis (RED) in Simulated Interstitial Fluid; format: physicochemical; conditions: initial 6-hour period, SIF, 1 mg/mL atovaquone, 37° C.
Method: The release rate of atovaquone from solid compositions thereof in accordance with the invention, alongside an equivalent unformulated preparation of atovaquone, was assessed using Rapid Equilibrium Dialysis (RED) (ThermoFisher Scientific). The eleven ‘hit’ formulations were dispersed in Simulated Interstitial Fluid (SIF) and subsequently diluted to 1 mg/mL of atovaquone. The SIF consisted of 35 mg/mL bovine serum albumin (BSA) and 2 mg/mL γ-Globulin derived from bovine blood and dissolved in distilled water. Unformulated atovaquone was initially dissolved in DMSO prior to dilution with SIF, such that the DMSO volume was <1% of the total volume. […] Following incubation, 4 mL ultima gold liquid scintillation cocktail fluid (Meridian Biotechnologies, UK) was added to each 0.1 mL sample and radioactivity was determined as disintegrations per minute (DPM) using a Perkin Elmer 3100TS scintillation counter. Data is expressed as the amount of atovaquone released and diffused across the membrane as a percentage of the starting donor amount, in triplicate, for each of the eleven hit formulations as compared to unformulated atovaquone, as shown in FIGS. 3A-3K (error bars are ±1 S.D.) and FIG. 4 (release after 24 hours) (error bars are ±1 S.D.). […]

[2] = design: species or system mice; conditions: mouse, in vivo
Method: Mice were injected intramuscularly with 200 mg/kg of an atovaquone nanoformulation. At intervals blood was harvested (microtainer tubes, BD Biosciences), centrifuged (1300×g, 10 min, 4° C.), and plasma was collected and stored at −80° C. until use. The nanoformulations tested were ACS_ATQ_7 and ACS_ATQ_8.
The concentration of atovaquone in the plasma was assayed by UPLC-MS/MS. Briefly, acetonitrile and deuterated atovaquone internal standard were added to 25 μL of thawed plasma, followed by filtration (Captiva filtration plate, Agilent Technologies). A 5 μL aliquot was separated on a reverse phase column and atovaquone was monitored by triple-quadrupole API4000 (SCIEX, Framingham, Mass., USA) mass analyzer with electrospray ionization. The assay was validated to FDA guidelines for 250-50,000 ng/mL. Values between 250 and 77 ng/mL (the limit of detection) were interpreted conservatively.

[3] = in vivo
[4] = orally dosed; mice; known value; cited from earlier work
[5] = humans; known value; cited from earlier work
[6] = background statement; cited from earlier work

## O=C1C(O)=C([C@H]2CC[C@H](c3ccc(Cl)cc3)CC2)C(=O)c2ccccc21 [atovaquone]
[1]; Table 3
  Release Rate: 0.006 h⁻¹
[1]; different loadings, Table 7
  Release Rate: 0.0060 h⁻¹
[2]
  plasma concentration of atovaquone that correlates with successful prophylaxis: > 200 ng/mL
[3]
  disposition of atovaquone in humans relative to mice: approximately eight
[4]
  plasma half-life: 9 h
[5]
  plasma half-life: 70 h
[6]
  lipophilicity: highly lipophilic
  solubility in water: practically insoluble
